The values below come from US20250109118A1, “HETEROCYCLIC COMPOUNDS AS SHP2 INHIBITORS, COMPOSITIONS COMPRISING THE HETEROCYCLIC COMPOUND, AND METHODS OF USE THEREOF” (JS INNOMED HOLDINGS LTD., priority 2021, published 2025).

A value given as a limit tells only on which side of the number the result lay.

This test has as its system MiaPaCa-2 cells. As to the kind of experiment: MiaPaCa-2 Cell proliferation assay in 3D culture (CCK8). It counts as cell-based. The conditions noted are these: Homo sapiens, MIA PaCa-2, 120 h; 3D spheroid culture, 5 days with compound, CCK8 readout. Here is the method: MiaPaCa-2 Cell proliferation assay in 3D culture. To evaluate cell viability, MiaPaCa-2 cells in logarithmic growth phase were seeded at optimal density and grown in as spheroids. Cells were incubated for 24 hours prior to the addition of different concentrations of the compounds. Cells were cultured with the compounds for 5 days and the cell viability was assessed using CCK8. Briefly, 2500 cells were seeded in round bottom ultra-low attachment 96 well plates (coming) in growth media supplemented with 10% FBS and incubated at 37° C. for 24 hours. The compounds were dissolved in DMSO (Sigma) to obtain 10 mM stock solution. Then the compounds were serially diluted in 3-fold to ten concentrations; 5 μL of the dilution above was transferred to 95 uL culture media to obtain the 50× compound stock solution; 4 uL of the 50× compound above was then transferred to the wells containing cells with 196 μL of the culture medium to obtain the final 1× concentration. The final concentration of DMSO was 0.1%. Spheroid cells were incubated in compounds for 5 days. Then 20 μL WST-8 solution (DOJINDO, Cell Counting KIT-8) was added to each well. The plates were further incubated at 37° C. for 1.5 hours, and then absorbance at 450 nm was measured using a microplate reader. Each compound was tested in triplicate and the IC50 value was calculated using GraphPad Prism.
The IC50 values of for Compounds disclosed are listed in Table 2, A: ≤500 nM; B: >500 nM and ≤5 μM; C: >5 μM and ≤50 μM; and D: >50 μM.
What is called IC50 is the concentration that inhibits the measured activity by half. Consider `C[C@@H]1OCC2(CCN(c3cnc(Sc4cccc(NC(=O)NS(=O)(=O)c5ccccn5)c4Cl)cn3)CC2)[C@@H]1N` [Example 63, N-((3-((5-((3S,4S)-4-amino-3-methyl-2-oxa-8-azaspiro[4.5]decan-8-yl)pyrazin-2-yl)thio)-2-chlorophenyl)carbamoyl)pyridine-2-sulfonamide], for which the IC50 is not above 500 nM.

On to `C[C@@H]1OCC2(CCN(c3cnc(Sc4cccc(NC(=O)NS(=O)(=O)N5CCOCC5)c4Cl)cn3)CC2)[C@@H]1N` [Example 74, N-((3-((5-((3S,4S)-4-amino-3-methyl-2-oxa-8-azaspiro[4.5]decan-8-yl)pyrazin-2-yl)thio)-2-chlorophenyl)carbamoyl)morpholine-4-sulfonamide], for which the IC50 is not above 500 nM.

With `C[C@@H]1OCC2(CCN(c3cnc(Sc4cccc(NS(=O)(=O)NC(=O)Nc5ccccc5)c4Cl)cn3)CC2)[C@@H]1N` [Example 12, ((3S,4S)-8-(5-((2-chloro-3-((N-(phenylcarbamoyl)sulfamoyl)amino)phenyl)thio)pyrazin-2-yl)-3-methyl-2-oxa-8-azaspiro[4.5]decan-4-yl)amine], the IC50 was not above 500 nM.

As for `Cc1nc(N2CCC3(CC2)CO[C@@H](C)[C@H]3N)c(CO)nc1Sc1cccc(NC(=O)NS(=O)(=O)c2ccccc2)c1Cl` [Example 11, N-((3-((5-((3S,4S)-4-amino-3-methyl-2-oxa-8-azaspiro[4.5]decan-8-yl)-6-(hydroxymethyl)-3-methylpyrazin-2-yl)thio)-2-chlorophenyl)carbamoyl)benzenesulfonamide], the IC50 is not above 500 nM.

For the molecule `C[C@@H]1OCC2(CCN(c3cnc(Sc4ccnc(NC(=O)NS(=O)(=O)c5cccnc5)c4Cl)cn3)CC2)[C@@H]1N` [Example 51, N-((4-((5-((3S,4S)-4-amino-3-methyl-2-oxa-8-azaspiro[4.5]decan-8-yl)pyrazin-2-yl)thio)-3-chloropyridin-2-yl)carbamoyl)pyridine-3-sulfonamide], the IC50 lay in the range of 500 to 5000 nM.

Take `C[C@@H]1OCC2(CCN(c3cnc(Sc4cccc(NC(=O)NS(=O)(=O)N5CCC(N)C5)c4Cl)cn3)CC2)[C@@H]1N` (stereo partly drawn) [Example 84, 3-amino-N-((3-((5-((3S,4S)-4-amino-3-methyl-2-oxa-8-azaspiro[4.5]decan-8-yl)pyrazin-2-yl)thio)-2-chlorophenyl)carbamoyl)pyrrolidine-1-sulfonamide]: the IC50 is not above 500 nM.

Turning to `C[C@@H]1OCC2(CCN(c3ncc(Sc4ccnc(NC(=O)NS(=O)(=O)c5ccccc5)c4Cl)c4nncn34)CC2)[C@@H]1N` [Example 15, N-((4-((5-((3S,4S)-4-amino-3-methyl-2-oxa-8-azaspiro[4.5]decan-8-yl)[1,2,4]triazolo[4,3-c]pyrimidin-8-yl)thio)-3-chloropyridin-2-yl)carbamoyl)benzenesulfonamide], the IC50 lay within 500 to 5000 nM.

Consider `C[C@@H]1OCC2(CCN(c3cnc(Sc4ccnc(NC(=O)NS(=O)(=O)c5ccc(F)cc5)c4Cl)cn3)CC2)[C@@H]1N` [Example 53, N-((4-((5-((3S,4S)-4-amino-3-methyl-2-oxa-8-azaspiro[4.5]decan-8-yl)pyrazin-2-yl)thio)-3-chloropyridin-2-yl)carbamoyl)-4-fluorobenzenesulfonamide], for which the IC50 was not above 500 nM.

Take `Cc1nc(N2CCC3(CC2)CO[C@@H](C)[C@H]3N)c(CO)nc1Sc1ccnc(NC(=O)NS(=O)(=O)c2ccccc2)c1Cl` [Example 59, N-((4-((5-((3S,4S)-4-amino-3-methyl-2-oxa-8-azaspiro[4.5]decan-8-yl)-6-(hydroxymethyl)-3-methylpyrazin-2-yl)thio)-3-chloropyridin-2-yl)carbamoyl)benzenesulfonamide]: the IC50 is not above 500 nM.

On to `C[C@@H]1OCC2(CCN(c3cnc(Sc4cccc(NC(=O)NS(=O)(=O)C5CCOCC5)c4Cl)cn3)CC2)[C@@H]1N` [Example 68, N-((3-((5-((3S,4S)-4-amino-3-methyl-2-oxa-8-azaspiro[4.5]decan-8-yl)pyrazin-2-yl)thio)-2-chlorophenyl)carbamoyl)tetrahydro-2H-pyran-4-sulfonamide], for which the IC50 was not above 500 nM.

Take `C[C@@H]1OCC2(CCN(c3cnc(Sc4cccc(NC(=O)NS(=O)(=O)c5cccc(F)c5)c4Cl)cn3)CC2)[C@@H]1N` [Example 62, N-((3-((5-((3S,4S)-4-amino-3-methyl-2-oxa-8-azaspiro[4.5]decan-8-yl)pyrazin-2-yl)thio)-2-chlorophenyl)carbamoyl)-3-fluorobenzenesulfonamide]: the IC50 was not above 500 nM.

Turning to `C[C@@H]1OCC2(CCN(c3cnc(Sc4cccc(NC(=O)NS(=O)(=O)c5cccnc5)c4Cl)cn3)CC2)[C@@H]1N` [Example 61, N-((3-((5-((3S,4S)-4-amino-3-methyl-2-oxa-8-azaspiro[4.5]decan-8-yl)pyrazin-2-yl)thio)-2-chlorophenyl)carbamoyl)pyridine-3-sulfonamide], the 50% inhibitory concentration (IC50) was not above 500 nM.

Regarding `C[C@@H]1OCC2(CCN(c3cnc(Sc4ccnc(NC(=O)NS(=O)(=O)C5CC5)c4Cl)cn3)CC2)[C@@H]1N` [Example 57, N-((4-((5-((3S,4S)-4-amino-3-methyl-2-oxa-8-azaspiro[4.5]decan-8-yl)pyrazin-2-yl)thio)-3-chloropyridin-2-yl)carbamoyl)cyclopropanesulfonamide], the IC50 is not above 500 nM.

On to `CC1(CN)CCN(c2cnc(Sc3ccnc(NC(=O)NS(=O)(=O)c4ccccc4)c3Cl)cn2)CC1` [Example 48, N-((4-((5-(4-(aminomethyl)-4-methylpiperidin-1-yl)pyrazin-2-yl)thio)-3-chloropyridin-2-yl)carbamoyl)benzenesulfonamide], for which the IC50 was not above 500 nM.

As for `COc1ccc(S(=O)(=O)NC(=O)Nc2nccc(Sc3cnc(N4CCC5(CC4)CO[C@@H](C)[C@H]5N)cn3)c2Cl)cn1` [Example 54, N-((4-((5-((3S,4S)-4-amino-3-methyl-2-oxa-8-azaspiro[4.5]decan-8-yl)pyrazin-2-yl)thio)-3-chloropyridin-2-yl)carbamoyl)-6-methoxypyridine-3-sulfonamide], the IC50 was not above 500 nM.

Consider `C[C@@H]1OCC2(CCN(c3cnc(Sc4cccc(NS(=O)(=O)NC(=O)c5ccccc5)c4Cl)cn3)CC2)[C@@H]1N` [Example 80, N—(N-(3-((5-((3S,4S)-4-amino-3-methyl-2-oxa-8-azaspiro[4.5]decan-8-yl)pyrazin-2-yl)thio)-2-chlorophenyl)sulfamoyl)benzamide], for which the IC50 was not above 500 nM.

For `C[C@@H]1OCC2(CCN(c3cnc(Sc4ccnc(NC(=O)NS(=O)(=O)c5cnn(C)c5)c4Cl)cn3)CC2)[C@@H]1N` [Example 55, N-((4-((5-((3S,4S)-4-amino-3-methyl-2-oxa-8-azaspiro[4.5]decan-8-yl)pyrazin-2-yl)thio)-3-chloropyridin-2-yl)carbamoyl)-1-methyl-1H-pyrazole-4-sulfonamide], the IC50 was not above 500 nM.

For `C[C@@H]1OCC2(CCN(c3cnc(Sc4cccc(NC(=O)NS(=O)(=O)N5CCC(O)C5)c4Cl)cn3)CC2)[C@@H]1N` (stereo partly drawn) [Example 81, N-((3-((5-((3S,4S)-4-amino-3-methyl-2-oxa-8-azaspiro[4.5]decan-8-yl)pyrazin-2-yl)thio)-2-chlorophenyl)carbamoyl)-3-hydroxypyrrolidine-1-sulfonamide], the IC50 is not above 500 nM.

Regarding `C[C@@H]1OCC2(CCN(c3cnc(Sc4ccnc(C(=O)NS(=O)(=O)c5ccccc5)c4Cl)cn3)CC2)[C@@H]1N` [Example 71, 4-((5-((3S,4S)-4-amino-3-methyl-2-oxa-8-azaspiro[4.5]decan-8-yl)pyrazin-2-yl)thio)-3-chloro-N-(phenylsulfonyl)picolinamide], the IC50 lay in the range of 500 to 5000 nM.

In the case of `C[C@@H]1OCC2(CCN(c3cnc(Sc4cccc(NC(=O)NS(=O)(=O)c5ccccc5F)c4Cl)cn3)CC2)[C@@H]1N` [Example 10, N-((3-((5-((3S,4S)-4-amino-3-methyl-2-oxa-8-azaspiro[4.5]decan-8-yl)pyrazin-2-yl)thio)-2-chlorophenyl)carbamoyl)-2-fluorobenzenesulfonamide], the IC50 was not above 500 nM.

For `N[C@@H]1c2cnccc2CC12CCN(c1cnc(Sc3cccc(NC(=O)NS(=O)(=O)c4ccccc4)c3Cl)cn1)CC2` [Example 67, (S)—N-((3-((5-(7-amino-5,7-dihydrospiro[cyclopenta[c]pyridine-6,4′-piperidin]-1′-yl)pyrazin-2-yl)thio)-2-chlorophenyl)carbamoyl)benzenesulfonamide], the 50% inhibitory concentration (IC50) was not above 500 nM.

On to `Cc1nc(N2CCC(C)(CN)CC2)c(CO)nc1Sc1ccnc(NC(=O)NS(=O)(=O)c2ccccc2)c1Cl` [Example 9, N-((4-((5-(4-(aminomethyl)-4-methylpiperidin-1-yl)-6-(hydroxymethyl)-3-methylpyrazin-2-yl)thio)-3-chloropyridin-2-yl)carbamoyl)benzenesulfonamide], for which the IC50 is not above 500 nM.

For the molecule `C[C@@H]1OCC2(CCN(c3cnc(Sc4cccc(NC(=O)NS(=O)(=O)C5CCCC5)c4Cl)cn3)CC2)[C@@H]1N` [Example 73, N-((3-((5-((3S,4S)-4-amino-3-methyl-2-oxa-8-azaspiro[4.5]decan-8-yl)pyrazin-2-yl)thio)-2-chlorophenyl)carbamoyl)cyclopentanesulfonamide], the IC50 is not above 500 nM.
